The record followed here is PubChem BioAssay (NCI).

Where “and” joins values, the source holds several entries; their conditions need not be identical. Equal values may be shown once.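 Following 48 hours of exposure in 96-well plates, responses at five concentrations were used to interpolate endpoints linearly. The concentration for 50% growth inhibition is given as GI50. Definition used: TGI = concentration required for complete inhibition of growth.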

Some test systems named below: EKVX NSCLC; HCT-116 colon; HL-60(TB) leukemia; LOX IMVI melanoma; MALME-3M melanoma; OVCAR-5 ovarian; SR leukemia; SW-620 colon; U251 CNS; UO-31 renal.
What all share (assay): DTP human tumour cell line panel, 48 h

On to `Cc1cc(C(=O)NOCCO)c(Nc2ccc(I)cc2F)n(C)c1=O`, for which the GI50 in the experiment with EKVX NSCLC was 0.0233 µM; with HCT-116 colon, 0.011 µM and 0.0164 µM; in the experiment with HL-60(TB) leukemia, 0.00173 µM and < 0.01 µM; in the experiment on MALME-3M melanoma it was under 0.01 µM; in the experiment on OVCAR-5 ovarian, 0.00163 µM and < 0.0168 µM; in the experiment on SR leukemia, > 10 µM and 29.5 µM. The GI50 in the experiment on SW-620 colon is 0.00252 µM and < 0.01 µM; with U251 CNS, > 10 µM and 2.81 µM; in the experiment on UO-31 renal it was 0.0289 µM and < 0.045 µM. Further, the TGI was over 10 µM with EKVX NSCLC; over 100 µM in the experiment on HCT-116 colon; over 49.6 µM in the experiment with HL-60(TB) leukemia; over 100 µM in the experiment on LOX IMVI melanoma; 0.0115 µM and < 0.01 µM with MALME-3M melanoma; over 100 µM with OVCAR-5 ovarian. The TGI with SR leukemia, in the experiment with SW-620 colon, with U251 CNS and in the experiment with UO-31 renal was over 100 µM throughout.

Regarding `O=C(Nc1ccc([N+](=O)[O-])cc1Cl)c1cc(Cl)ccc1O`, the GI50 with EKVX NSCLC was 0.16 µM and 0.315 µM; with HCT-116 colon it was 0.121 µM and 0.172 µM; in the experiment with HL-60(TB) leukemia, 0.115 µM; in the experiment with LOX IMVI melanoma, 0.162 µM and 0.244 µM; in the experiment with MALME-3M melanoma, 0.101 µM and 0.194 µM; in the experiment with OVCAR-5 ovarian it was 0.249 µM and 0.373 µM. The GI50 in the experiment with SR leukemia was 0.145 µM and 0.134 µM; in the experiment on SW-620 colon, 0.163 µM and 0.333 µM; in the experiment with U251 CNS, 0.0971 µM and 0.217 µM; in the experiment on UO-31 renal, 0.129 µM and 0.254 µM. Besides, the TGI is 0.397 µM and 0.483 µM in the experiment with HCT-116 colon; 0.244 µM in the experiment with HL-60(TB) leukemia; 0.338 µM and 0.744 µM with MALME-3M melanoma; 50 µM and > 95.5 µM with OVCAR-5 ovarian; 0.761 µM in the experiment on SR leukemia; 15.5 µM and 11.9 µM in the experiment on SW-620 colon. In the experiment with UO-31 renal, the TGI was 0.437 µM and 1.01 µM.

As to `N/C(=N/O)NOCCC(N)C(=O)O` (stereo unspecified), the GI50 in the experiment with EKVX NSCLC, with HCT-116 colon, in the experiment with HL-60(TB) leukemia, in the experiment on LOX IMVI melanoma, in the experiment with MALME-3M melanoma and with OVCAR-5 ovarian was over 100 µM in each case. Besides, the GI50 in the experiment on SR leukemia, in the experiment with SW-620 colon, with U251 CNS and in the experiment with UO-31 renal was over 100 µM each time. In addition, the TGI in the experiment on EKVX NSCLC, in the experiment with HCT-116 colon, in the experiment with HL-60(TB) leukemia, with LOX IMVI melanoma, in the experiment with MALME-3M melanoma and in the experiment on OVCAR-5 ovarian was over 100 µM each time. Further, the TGI in the experiment with SR leukemia, in the experiment on SW-620 colon, in the experiment on U251 CNS and in the experiment with UO-31 renal was over 100 µM in each case.

As for `O=C(Nc1n[nH]c2cc(-c3ccc(F)cc3)ccc12)C1CC1`, the GI50 was 12.2 µM in the experiment on EKVX NSCLC; 8.89 µM with HCT-116 colon; 6.69 µM in the experiment on HL-60(TB) leukemia; 10.7 µM with LOX IMVI melanoma; 9.79 µM in the experiment with MALME-3M melanoma; 14.8 µM with OVCAR-5 ovarian. The GI50 is 2.76 µM in the experiment on SR leukemia, 7.69 µM with SW-620 colon, 10.2 µM in the experiment with U251 CNS and 3.74 µM in the experiment with UO-31 renal. Besides, the TGI in the experiment with EKVX NSCLC was over 25 µM; in the experiment with HCT-116 colon, over 25 µM; with HL-60(TB) leukemia, 22.3 µM; in the experiment with LOX IMVI melanoma it was over 25 µM; with MALME-3M melanoma, over 25 µM; with OVCAR-5 ovarian, over 25 µM. Besides, the TGI in the experiment on SR leukemia, in the experiment with SW-620 colon, with U251 CNS and in the experiment on UO-31 renal was over 25 µM each time.

`NS(=O)(=O)c1ccc(NC(=O)Nc2cccc3ccccc23)cc1`: the TGI is 80.8 µM in the experiment on EKVX NSCLC; over 100 µM in the experiment with HCT-116 colon; over 100 µM with HL-60(TB) leukemia; over 100 µM with LOX IMVI melanoma; over 100 µM in the experiment with MALME-3M melanoma; over 100 µM in the experiment on OVCAR-5 ovarian. Besides, the TGI in the experiment on SR leukemia is over 100 µM; in the experiment on SW-620 colon, over 100 µM; with U251 CNS, 36.2 µM; in the experiment with UO-31 renal, 31.8 µM.

As to `CC#CC#C/C=C1/C=CC2(CCCCO2)O1` (stereo unspecified), the TGI is over 100 µM in the experiment with EKVX NSCLC; over 100 µM in the experiment with HCT-116 colon; 47.4 µM with HL-60(TB) leukemia; over 100 µM in the experiment on LOX IMVI melanoma; over 100 µM with MALME-3M melanoma; over 100 µM in the experiment with OVCAR-5 ovarian. Further, the TGI in the experiment on SR leukemia, with SW-620 colon, in the experiment with U251 CNS and in the experiment with UO-31 renal was over 100 µM throughout.

Take `Oc1ccc(Cl)cc1N=Nc1c(O)ccc2ccccc12`: the TGI was over 100 µM with EKVX NSCLC; over 100 µM in the experiment on HCT-116 colon; over 100 µM in the experiment on HL-60(TB) leukemia; over 100 µM in the experiment on LOX IMVI melanoma; 80.3 µM in the experiment on MALME-3M melanoma; over 100 µM in the experiment with OVCAR-5 ovarian. Moreover, the TGI with SR leukemia, in the experiment with SW-620 colon, in the experiment with U251 CNS and in the experiment on UO-31 renal was over 100 µM in each case.
